Data published in ChEMBL document CHEMBL3045709, “Increasing resistance against Phytophthora citrophthora in tangelo Nova fruits by modulating polymethoxyflavones levels” (J Agric Food Chem, 2002).
Activity calls are given as the source filed them. The calls are words filed in the database; no cut-off is given here.

What was measured:
[1] = system: Phytophthora citrophthora; test: Antifungal activity against Phytophthora citrophthora assessed as inhibition of radical growth at 0.05 to 0.4 g/L up to 200 hr; type: functional, organism-based
Citrus [2] = test: Induction of resistance against Phytophthora citrophthora in Citrus (tangelo Nova) fruits assessed as increase of polymethoxyflavones levels at 20 to 250 ppm after 7 days; type: functional
Citrus [3] = test: Induction of resistance against Phytophthora citrophthora in Citrus (tangelo Nova) fruits assessed as increase of polymethoxyflavones levels at 20 to 250 ppm up to 160 days; type: functional
[4] = system: Phytophthora citrophthora; test: Antifungal activity against Phytophthora citrophthora after 100 hr; type: functional, organism-based
[5] = system: Phytophthora citrophthora; test: Antifungal activity against Phytophthora citrophthora assessed as inhibition of radical growth at 0.1 to 1 g/L up to 200 hr; type: functional, organism-based
Penicillium digitatum = test: Antifungal activity against Penicillium digitatum; type: functional, organism-based
[6] = system: Phytophthora citrophthora; test: Antifungal activity against Phytophthora citrophthora in tangelo Nova fruits assessed as inhibition of fungal growth at 100 ppm after 3 to 5 days; type: functional; settings: read-out: GI
[7] = system: Phytophthora citrophthora; test: Antifungal activity against Phytophthora citrophthora assessed as inhibition of radical growth at 0.2 to 0.6 g/L up to 200 hr; type: functional, organism-based

Row | Compound | IC50 [4] [µM] | IC50 (Penicillium digitatum) [µM] | growth inhibition (GI) [1] | Activity (Citrus [2]) [%] | Activity (Citrus [3]) | growth inhibition (GI) [5] | inhibition of growth at 100 ppm [6] [%] | growth inhibition (GI) [7]
1 | c1ccc(CNc2ncnc3[nH]cnc23)cc1 [6-BENZYLAMINOPURINE] |  |  |  |  |  |  | 60 | 
2 | COc1ccc(-c2oc3c(OC)c(OC)c(OC)c(OC)c3c(=O)c2OC)cc1OC [3,5,6,7,8,3',4'-HEPTAMETHOXYFLAVONE] | 1040 |  |  | 29 | 43% | Active |  | 

Second part, led by results:

Row | IC50 [4] [µM] | IC50 (Penicillium digitatum) [µM] | Compound | growth inhibition (GI) [1] | Activity (Citrus [2]) [%] | Activity (Citrus [3]) | growth inhibition (GI) [5] | inhibition of growth at 100 ppm [6] [%] | growth inhibition (GI) [7]
3 | 590 |  | COc1ccc(-c2cc(=O)c3c(OC)c(OC)c(OC)c(OC)c3o2)cc1OC [NOBILETIN] | Active | 20 | Active |  |  | 
4 | 1720 | 6450 | COc1ccc(-c2cc(=O)c3c(OC)c(OC)c(OC)c(OC)c3o2)cc1 [TANGERETIN] |  | 12 | Active | Active |  | 
5 | 910 |  | COc1ccc(-c2cc(=O)c3c(OC)c(OC)c(OC)cc3o2)cc1OC [SINENSETIN] |  | 20 | Active |  |  | Active
